Reference: patent publication US12083187B2, “Method of treatment for solid tumors containing hypoxia and/or stroma features” (Wayne State University, priority 2017, dated 2024)
Where “and” joins values, the source holds several entries; their conditions need not be identical. Equal entries are not always repeated.

Key:
[1] = cited from earlier work
A498 wild type = conditions: for Combination Index (Cl) Drug + CFM4.16: A498 wild type, non-encapsulated drug combined with non-encapsulated CFM4.16, MTT, CompuSyn, CI<1 synergistic
Protocol: (§1) Cell Viability Assays. […] After treatment, an MTT assay was performed.
(§2) In vitro cytotoxicity assay. […] First, the cells were seeded in a 96-well multiwell plate at a density of 5×10^3 cells per well. The cells were allowed to grow in fresh culture media overnight. CAIX-positive and CAIX-negative cells were generated by parallel treatments with hypoxia and normoxia as described above. After 20 h, the medium was removed, and the wells were washed twice with PBS. […] After treatment, an MTT assay was performed.
(§3) RCC is very difficult to treat as the cells are mostly resistant to many current therapies. […] First, we determined cytotoxicity of individual drugs C4.16, Sor, and Evr in both A498. […] In order to understand the safety of combination therapy, we performed the hemolysis assay using CAIX-C4.16 and combination of CAIX-C4.16+Sor.

[2] = test system: A498 Everolimus resistant type; conditions: for Combination Index (Cl) Drug + CFM4.16: A498 Everolimus resistant type, drug combined with CFM4.16, MTT, CompuSyn
Protocol: Generation of Everolimus-resistant RCC cells.
as §1, §2, §3

[3] = test system: A498 RCC cell-derived xenografts; test: A498 RCC cell-derived xenograft efficacy study in SCID mice; type: in vivo, mouse; conditions: intravenous, 30 mg/kg/day
Protocol: A dose of 30 mg/kg/day of this preparation was administered by intravenous (tail vein) injections for a total dose of 482 mg/kg in SCID mice bearing […]. […] In addition, after the completion of the animal experiment, tumors from treatment and control groups were dissected, and cryosectioned for imaging of apoptotic signs using TUNEL (Terminal deoxynucleotidyl transferase dUTP nick end labeling) and CARP-1.
For efficacy studies, after a suitable period of acclimation, a suspension of 1×10^6 A498 RCC cells in 200 μl of serum-free Hank's balanced salt solution were subcutaneously implanted in flanks of each animal using a 27-gauge needle. Tumors were allowed to grow unperturbed for 10-14 days. When tumors became palpable (200 mm^3), the mice were randomly assigned to treatment or control groups of eight animals each. […] The end points for assessing antitumor activity consisted of tumor weight, tumor growth inhibition (% T/C), and tumor cell kill Log10. Tumor weight (mg)=(A×B2)/2 where A and B are the tumor length and width (in mm), respectively. Tumor growth inhibition (T/C) was the median tumor weight in the treated group (T) when the median tumor weight in the control group reached 750 mg. Results were expressed as percentage. […] Tumor volumes were calculated by the modified ellipsoidal formula. […]

AKT activity (pAKT) = test: Western blot of AKT activation in WT and Evr-res A498 cells; type: cell-based, human; conditions: vs untreated control
Protocol: Western Blot analysis. For protein expression analysis, western blot experiments were conducted. The RCC cells were treated with DMSO/Vehicle (Control) for the indicated doses and times of the noted compound, and were lysed to prepare protein extracts. Cells were harvested and lysed in RIPA buffer (50 mM Tris-HCl, pH 8.0, 150 mM sodium chloride, 1.0% NP-40, 0.5% sodium deoxycholate, 0.1% sodium dodecyl sulfate (SDS), and 0.1% of protease inhibitor cocktail) for 20 min at 4° C. The lysates were then centrifuged at 14,000 rpm at 4° C. for 15 min to remove debris. The protein concentrations of whole cell lysates were then determined using the Protein Assay Kit. Supernatant proteins, 50 μg from each sample, were separated by SDS-10% polyacrylamide gel electrophoresis (SDS-PAGE) and transferred to polyvinylidene difluoride (PVDF) membrane (Bio-Rad, Hercules, CA) by standard procedures. The membranes were hybridized with primary antibodies followed by incubation with appropriate secondary antibodies. […]
Mechanism of C4.16 for overcoming drug resistance. In this study, we determined how induction of apoptosis and inhibition of oncogenic survival signaling would reinforce the synergistic cell killing and reversal of drug resistance in VVT and Evr-res A498 cells when treated with CA IX C4.16+Sor. […]

caspase-3/7 = test: Caspase 3/7 assay in Evr-res A498 cells; type: cell-based, human; conditions: RCC cells, vs control
OUK262 wild type = test: MTT / CompuSyn combination index in OUK262 wild type RCC cells; conditions: drug combined with CFM4.16
Protocol: (§4) Cell Viability Assays. […] First, 5×10^3 cells were seeded in a 96-well plate in triplicate and allowed to grow in fresh culture media for another 24 h. Cells were then treated with respective agents for the noted doses and times. Control cells were treated with 0.1% DMSO in culture medium. After treatment, an MTT assay was performed. Briefly, 20 μL of 1 mg/ml of MTT was added to each well and cells were incubated for 2-4 h at 37° C. MTT was removed, and the resulting formazan products were dissolved by adding 50 μl DMSO/well followed by colorimetric analysis using a multi-label plate reader at 570 nm (Victor3; PerkinElmer, Wellesley, MA).
(§5) All the clinically drugs were treated in combination with CFM4.16 with a range of concentrations using MTT assay in the specified RCC cell line, and the data were feed to CompuSyn program to obtain the CI-value.

[4] = test system: OUK262 Everolimus resistant type; test: MTT / CompuSyn combination index in Everolimus resistant OUK262 RCC cells; conditions: drug combined with CFM4.16
Protocol: as §4, §5

Evr-res A498 tumor = conditions: mouse, in vivo
Protocol: In Vivo Imaging Studies. S0456 a reactive near-infra-red fluorochrome, was covalently linked with PLNPs and used for in vivo near-IR optical imaging of selected nanoparticle formulations. The formulations were injected intravenously in female nude mice bearing tumor xenografts. The distribution and tumor targeted delivery were imaged by tracking the fluorescent output of IRDye 800® with in vivo Imaging System (see FIG. 11).
PDX animal imaging and bio-distribution of CAIX-targeted-nanoformulation. A CAIX-targeted-nanomicelles conjugated with Near-infrared dye was administered directly via iv administration to 5-weeks old NCR SCID mice and the distribution behavior in the mice was monitored at different time points after administration using an in vivo imaging system.
To ascertain core penetrating ability of CA IX-S0456 in a drug resistant tumor model, we performed three transverse sectioning of the isolated tumor after the bio-D study.

RCC = conditions: cited from earlier work; for progression free survival: RCC, clinical

Compound	Combination Index (Cl) Drug + CFM4.16 (A498 wild type)	Combination Index (Cl) Drug + CFM4.16 [2]	Combination Index (Cl) Drug + CFM4.16 (OUK262 wild type)	Combination Index (Cl) Drug + CFM4.16 [4]	further results
COc1cc2nccc(Oc3ccc(NC(=O)C4(C(=O)Nc5ccc(F)cc5)CC4)cc3)c2cc1OC [CB, cabozantinib]					well tolerated dose ([1]; mouse, in vivo): 60 mg/kg
O=C1N(Cc2ccccc2Cl)c2ccccc2C12NN=C(c1cccc(Cl)c1)S2 (stereo not drawn) [CFM-4.16]					growth inhibition (in vitro cytotoxicity, comparison) (A498 wild type): more effective in inhibiting growth of WT and Evr-res A498 compared with Sor; growth inhibition (in vitro cytotoxicity, comparison) [2]: more effective in inhibiting growth of WT and Evr-res A498 compared with Sor; tumor growth / tumor size [3]: failed to inhibit tumor growth; AKT activity (pAKT) (AKT activity (pAKT)): downregulation of pAKT; caspase-3/7 activity (caspase-3/7): induced caspase-3/7 activation; loss in body weight ([1]; 30 mg/kg/day iv, total dose 482 mg/kg, DMSO/cremophor preparation, SCID mice): < 2% and 1.6%; MTD ([1]; mouse, in vivo): 30 mg/kg
CC(C)(C)c1nc(-c2cccc(NS(=O)(=O)c3c(F)cccc3F)c2F)c(-c2ccnc(N)n2)s1 [Dabrafenib]	0.1385	0.677	0.234	0.587	
CO[C@H]1C[C@@H]2CC[C@@H](C)[C@@](O)(O2)C(=O)C(=O)N2CCCC[C@H]2C(=O)O[C@H]([C@H](C)C[C@@H]2CC[C@@H](OCCO)[C@H](OC)C2)CC(=O)[C@H](C)/C=C(\C)[C@@H](O)[C@@H](OC)C(=O)[C@H](C)C[C@H](C)/C=C/C=C/C=C/1C [Everolimus]	0.7	1.3	0.67	1.45	growth inhibition (in vitro cytotoxicity, comparison) [2]: did not inhibit growth
O=C(c1cc(Cc2n[nH]c(=O)c3ccccc23)ccc1F)N1CCN(C(=O)C2CC2)CC1 [Olaparip]	1.0978	1.121	0.9878	1.312	
CC(=O)c1c(C)c2cnc(Nc3ccc(N4CCNCC4)cn3)nc2n(C2CCCC2)c1=O [Palbociclib]	0.7	0.971	0.897	1.0023	
CC1(C)C(/C=C/C2=C(Cl)C(=C/C=C3/N(CCCCS(=O)(=O)[O-])c4ccc(S(=O)(=O)[O-])cc4C3(C)C)/CCC2)=[N+](CCCCS(=O)(=O)[O-])c2ccc(S(=O)(=O)[O-])cc21.[Na+].[Na+].[Na+] [S0456]					tumor accumulation / selectivity (Evr-res A498 tumor): poor tumor accumulation with high off-target activity
CNC(=O)c1cc(Oc2ccc(NC(=O)Nc3ccc(Cl)c(C(F)(F)F)c3)cc2)ccn1 [Sorafenib]					AKT activity (pAKT) (AKT activity (pAKT)): downregulation of pAKT; progression free survival (RCC): 12 months
Nivolumab: immune-check point inhibitor (anti-PD1) approved for RCC					response rate, higher than Evr (RCC; RCC patients): 5%; progression free survival (RCC): 32 months
